From US6656969B2, “Methods and compositions for inhibiting the proliferation of prostate cancer cells” (Mayo Foundation for Medical Education and Research, priority 2001, dated 2003)

Legend:
[1] = test system: c-fos; test: Level of c-fos in LNCaP cells; assay type: cell-based, human
[2] = test system: ARA70; test: Level of androgen receptor specific co-activator ARA70; assay type: cell-based
[3] = test system: hsp70; test: Level of hsp70; assay type: cell-based
[4] = test system: hsp90; test: Level of hsp90; assay type: cell-based
[5] = test system: LNCaP cells; test: Cell proliferation (MTS) assay, androgen-stimulated growth; assay type: cell-based, human; conditions: six days; for androgen-stimulated cell growth: with 1 nM mibolerone (Mib)
Procedure: (§1) A human prostate cancer cell line, LNCaP (American Type Culture Collection (ATCC), Manassas, Va.), was cultured in RPMI 1640 medium (Mediatech, Herndon, Va.) supplemented with 5% fetal bovine serum (FBS) at 37° C. and 5% CO2 until reaching approximately 50-70% confluence. The media were changed to serum-free RPMI 1640 24 hrs prior to experiments being performed to deplete undesired steroids. […] Equivalent amounts of solvent were added to control cells.
(§2) For cell proliferation and PSA expression assays, LNCaP cells were seeded at 2×10^4 cells per well in 24 well plates. […] Six days after treatment, 400 μl of spent media were collected for total PSA protein measurements by the Tandem-E PSA kit (Hybritech Inc. San Diego, Calif.). An MTS assay was performed (Promega, Madison, Wis.) for measuring cell viability. Four wells per treatment were used for the above assays and it was repeated twice. PSA levels in spent media were normalized to cell number.

[6] = test system: androgen-regulated genes (NKX 3.1, ODC, fkbp 51, Drg-1, PSA); test: Northern blot of androgen-regulated genes in LNCaP cells; assay type: cell-based, human
Procedure: A denaturing RNA gel was run and transferred onto a nylon membrane (BioRad) according to the GeneScreen protocol (New England Nuclear). Fifteen μg of total RNA was loaded in each lane. cDNAs for PSA, ornithine decarboxylase (ODC), NKX 3.1, fkbp 51, Drg-1 and glyceraldehyde-3-phosphate dehydogenase (GAPDH) were labeled with [P^32]dCTP by random priming and used as probes. The hybridizations were performed according to the recommended protocol using ExpressHyb Hybridization Solution (Clontech, Palo Alto, Calif.). The films were autoradiographed at −70° C. overnight.

[7] = test system: PSA; test: PSA quantification in spent media (Tandem-E PSA kit); assay type: cell-based, human; conditions: LNCaP cells, 1 nM Mib, six days, normalized to cell number
Procedure: as §1, §2

[8] = target: T1, androgen receptor (Homo sapiens, UniProt P10275, T878A); assay type: cell-based; conditions: LNCaP cells, 3.2 nM Mib
T1 construct: LNCaP cells express the androgen receptor; endogenous in cells; host or cells: LNCaP
T1 sequence (P10275 whole entry T878A): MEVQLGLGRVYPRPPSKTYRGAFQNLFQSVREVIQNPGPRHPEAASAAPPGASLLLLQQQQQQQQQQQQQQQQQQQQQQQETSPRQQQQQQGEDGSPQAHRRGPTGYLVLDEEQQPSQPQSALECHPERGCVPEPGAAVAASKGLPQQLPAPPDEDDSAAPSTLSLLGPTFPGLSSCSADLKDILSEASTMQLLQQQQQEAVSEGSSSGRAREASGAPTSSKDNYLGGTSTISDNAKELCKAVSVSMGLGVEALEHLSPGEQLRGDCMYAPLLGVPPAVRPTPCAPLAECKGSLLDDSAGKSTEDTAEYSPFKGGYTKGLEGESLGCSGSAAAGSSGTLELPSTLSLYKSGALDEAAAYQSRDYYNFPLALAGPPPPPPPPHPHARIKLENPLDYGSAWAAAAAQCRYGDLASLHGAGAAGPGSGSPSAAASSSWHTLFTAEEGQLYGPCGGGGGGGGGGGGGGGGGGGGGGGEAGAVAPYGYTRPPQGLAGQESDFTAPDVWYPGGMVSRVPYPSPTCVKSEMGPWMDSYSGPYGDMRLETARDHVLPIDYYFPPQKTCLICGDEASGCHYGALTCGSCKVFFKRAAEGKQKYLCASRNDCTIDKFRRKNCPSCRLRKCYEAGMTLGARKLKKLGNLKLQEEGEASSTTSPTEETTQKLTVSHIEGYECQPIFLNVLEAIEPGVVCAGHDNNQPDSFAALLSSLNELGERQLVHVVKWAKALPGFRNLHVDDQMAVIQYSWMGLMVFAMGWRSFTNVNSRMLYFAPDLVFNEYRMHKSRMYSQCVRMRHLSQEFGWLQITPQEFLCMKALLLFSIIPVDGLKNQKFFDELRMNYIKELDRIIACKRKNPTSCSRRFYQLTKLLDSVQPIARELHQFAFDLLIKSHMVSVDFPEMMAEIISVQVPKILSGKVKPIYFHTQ
Procedure: LNCaP or PC-3 cells were plated in 60 mm dishes. Cells were transiently transfected as described (Zhang et al., 1999, Endocrin, 140:1665-71) with either 3 copies of an hK2 ARE in a pGL3 promoter plasmid, CMV-β-gal, a human androgen receptor expression vector or a c-jun expression vector as indicated. The androgen receptor and c-jun constructs were driven by an SV40 promoter. LNCaP cells were transfected using liposome containing dimethyldioctadecyl-ammonium bromide (DDAB) (Sigma) and L-α-lecithin (Sigma) (4:10 w/w) and PC-3 cells were transfected using lipofectamine (Gibco BRL, Grand Island, N.Y.). […] Whole cell extracts were prepared according to Ren et al., (2000, Oncogene, 19:1924-32) and a luciferase assay was performed according to manufacturer's instructions (Promega). The CMV-β-galactosidase (β-gal) expression vector and the parental vector (pGL3) were included as controls in the above transfections. β-gal activity or total protein using the Bradford assay (BioRad, Hercules, Calif.) were assayed for normalization purposes. Luciferase activities were normalized to β-gal activities and presented as relative light units/mU β-gal. Each transfection was done three times and results were analyzed by the Student's t-test. A p<0.05 was accepted as the level of significance.

CCC=CCC=CCC=CCC=CCC=CC/C=C\CCC(=O)O [DHA, cis-4,7, 10, 13, 16, 19-docosahexaenoic acid]
levels of c-fos [1]: unaltered
levels of ARA70 [2]: no inhibitory effects were observed
levels of hsp70 [3]: no inhibitory effects were observed
levels of hsp90 [4]: no inhibitory effects were observed
androgen-stimulated cell growth [5]: dose-dependent statistically significant decrease in cell growth
cell growth without androgen stimulation ([5]; without Mib): little response
androgen-induced mRNA of NKX 3.1, ODC, fkbp 51, Drg-1 and PSA ([6]; 1 nM Mib, DHA at 150 μM or higher): greatly inhibited the androgen-induced response
androgen-stimulated PSA secretion [7]: decrease in androgen-stimulated PSA secretion

CCC=CCC=CCC=CCC=CC/C=C\CCCC(=O)O [EPA, cis-5,8, 11, 14, 17-eicosapentaenoic acid]
levels of hsp70 [3]: no inhibitory effects were observed
levels of hsp90 [4]: no inhibitory effects were observed
androgen-stimulated cell growth [5]: decreased androgen-stimulated cell growth
mRNA and protein levels of PSA and hK2 ([6]; summary statement): reduce both the mRNA and protein levels
androgen-stimulated PSA secretion [7]: required higher EPA concentrations for significant inhibition

C[C@@H]1CC2=CC(=O)CC[C@@H]2[C@H]2CC[C@@]3(C)[C@@H](CC[C@]3(C)O)[C@@H]21 [Mib, mibolerone]
ARE luciferase activity, androgen alone [8]: strong androgenic induction of luciferase activity
